Test system: 192522-019-R-J2-PDC complex tumor spheroid viability
Experiment: Anticancer human tumor 192522-019-R-J2-PDC patient-derived colon adenocarcinoma cell line growth inhibition [POLQ]
Settings: for IC50: curve of first compound; for viability, T/C: stronger effect = lower value
Method: Multicellular complex tumor spheroid response to Polymerase (POL) inhibitors (novobiocin, ART-558, RP6685) in combination with a variety of drugs and investigational agents in selected tumor cell lines
The POL inhibitors (novobiocin, ART-558, and RP6685) were evaluated both individually and in combination with standard of care and investigational anticancer small molecules within a complex spheroid model of solid tumors. . Complex spheroids include a stromal component modeled by human endothelial cells (HUVEC) and fibroblasts modeled by human mesenchymal stem cells (MSCs). The concentration ranges selected for each drug and investigational agent were based upon clinically achievable concentrations if the clinical Cmax of the agent was known.
Compounds. The drugs and investigational agents: novobiocin (NSC847541), ART-558 (NSC835418), RP-6685 (NSC848927), peposertib (NSC802822), ceralasertib (NSC780249), elimusertib (NSC800525), camonsertib (NSC841442), AZD-1390 (NSC803789), olaparib (NSC753686), talazoparib (NSC767125), rucaparib (NSC756644), sotorasib (NSC818433), MRTX-1133 (NSC836407), SN-38 (NSC673596), topotecan (NSC609699), epotoside (NSC141540), doxorubicin (NSC123127), gemcitabine (NSC613327), 5-fluorouracil (NSC19893), paclitaxel (NSC125973), vemurafenib (NSC761431), MSA-2 (NSC828583), SN-011 (NSC837082), adavosertib (NSC754352), prexasertib (NSC758257), carboplatin (NSC241240) and oxaliplatin (NSC266046), were obtained from the National Cancer Institute (NCI) Developmental Therapeutics Program Chemical Repository (21). The FDA-approved anticancer drug set is available from the Developmental Therapeutics Program at https://dtp.cancer.gov/organization/dscb/obtaining/. […] The stock solutions were prepared in dimethyl sulfoxide (DMSO, Sigma-Aldrich, St. Louis, MO, cat. D2650), except for the platinum compounds which were prepared in saline (Quality Biological, Gaithersburg, MD, cat. 114-055-101), at 800-fold the tested concentration and stored at -70 degrees C prior to their use. All drugs and investigational agents were tested over a range starting from a high concentration at or near the clinical Cmax and decreasing in half-log increments. If the clinical Cmax for an agent had not been determined, the highest concentration tested was 10 microM, except for SN-38, which was tested at a high concentration of 1 microM.
Cell Culture. All cells were maintained in an incubator at 37 degrees C and 5% CO2 with 95% humidity. The PDC lines were cultured according to standard operating procedures established by the NCI PDMR (https://pdmr.cancer.gov). Table 3 of the manuscript, lists the cell lines along with the number of the three cell types plated to form the mct-spheroids and media for tumor cell growth. After thawing, all PDC lines, except 997537-175-T-J1-PDC and 415267-285-R-J2-PDC, were cultured in Matrigel-coated flasks prepared with a working solution of 1X Ham's F-12 nutrient mix, without supplementation (Thermo Fisher Scientific, cat. 11765054), 100 U/mL penicillin-streptomycin (Thermo Fisher Scientific, cat. 15140122), and 2.5% Matrigel (Corning Inc., Corning, NY, cat. 354248) for the first three passages. The two PDC lines 997537-175-T-J1-PDC and 415267-285-R-J2-PDC were cultured on uncoated flasks. The 857933-349-R-J2-PDC line was cultured in 6C/Colon 1B media containing advanced DMEM/F-12 (Thermo Fisher Scientific, cat. 12634028), 10 mM HEPES (Thermo Fisher Scientific, cat. 15630080), 1X GlutaMAX supplement (Thermo Fisher Scientific, cat. 35050061), 0.1 mg/mL primocin (InvivoGen, San Diego, CA, cat. ant-pm-2), 10% defined fetal bovine serum, heat inactivated (HyClone Laboratories Inc., Logan, UT, cat. SH30070.03HI), 50% L-WRN conditioned media (ATCC, cat. CRL-3276), 1.25 mM N-Acetyl-L-cysteine (Sigma-Aldrich, cat. A9165), 10 mM nicotinamide (Sigma-Aldrich, cat. N0636), 1X B-27 supplement (Thermo Fisher Scientific, cat. 17504044), 1X N-2 supplement (Thermo Fisher Scientific, cat. […]
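Also: spheroids exposed to drugs for seven days before reading.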
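For viability, T/C in this document: 100% = DMSO vehicle control viability in luminescence.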

Structure (SMILES): CC(=O)O[C@H]1C(=O)[C@@]2(C)[C@H]([C@H](OC(=O)c3ccccc3)[C@]3(O)C[C@H](OC(=O)[C@H](O)[C@@H](NC(=O)c4ccccc4)c4ccccc4)C(C)=C1C3(C)C)[C@]1(OC(C)=O)CO[C@@H]1C[C@@H]2O + COC1C(OC(N)=O)C(O)C(Oc2ccc3c(O)c(NC(=O)c4ccc(O)c(CC=C(C)C)c4)c(=O)oc3c2C)OC1(C)C
- IC50 (second compound 0.0316 µM): > 3 µM
- IC50 (second compound 0.1 µM): > 3 µM
- IC50 (second compound 0.316 µM): > 3 µM
- IC50 (second compound 1 µM): > 3 µM
- IC50 (second compound 3.16 µM): > 3 µM
- IC50 (second compound 10 µM): > 3 µM
- viability, T/C (second compound 0.0316 µM, first compound 0.00949 µM): 94.2%
- viability, T/C (second compound 0.0316 µM, first compound 0.03 µM): 72.8%
- viability, T/C (second compound 0.0316 µM, first compound 0.0949 µM): 56.6%
- viability, T/C (second compound 0.0316 µM, first compound 0.3 µM): 55.9%
- viability, T/C (second compound 0.0316 µM, first compound 0.949 µM): 55.2%
- viability, T/C (second compound 0.0316 µM, first compound 3 µM): 48.5%
- viability, T/C (second compound 0.1 µM, first compound 0.00949 µM): 95.6%
- viability, T/C (second compound 0.1 µM, first compound 0.03 µM): 74.7%
- viability, T/C (second compound 0.1 µM, first compound 0.0949 µM): 59.5%
- viability, T/C (second compound 0.1 µM, first compound 0.3 µM): 54.7%
- viability, T/C (second compound 0.1 µM, first compound 0.949 µM): 51.6%
- viability, T/C (second compound 0.1 µM, first compound 3 µM): 56.9%
- viability, T/C (second compound 0.316 µM, first compound 0.00949 µM): 91.6%
- viability, T/C (second compound 0.316 µM, first compound 0.03 µM): 78.1%
- viability, T/C (second compound 0.316 µM, first compound 0.0949 µM): 59.6%
- viability, T/C (second compound 0.316 µM, first compound 0.3 µM): 61.9%
- viability, T/C (second compound 0.316 µM, first compound 0.949 µM): 54.6%
- viability, T/C (second compound 0.316 µM, first compound 3 µM): 52.4%
- viability, T/C (second compound 1 µM, first compound 0.00949 µM): 102%
- viability, T/C (second compound 1 µM, first compound 0.03 µM): 80.6%
- viability, T/C (second compound 1 µM, first compound 0.0949 µM): 56.6%
- viability, T/C (second compound 1 µM, first compound 0.3 µM): 52.7%
- viability, T/C (second compound 1 µM, first compound 0.949 µM): 56.1%
- viability, T/C (second compound 1 µM, first compound 3 µM): 54%
- viability, T/C (second compound 3.16 µM, first compound 0.00949 µM): 99.1%
- viability, T/C (second compound 3.16 µM, first compound 0.03 µM): 84.6%
- viability, T/C (second compound 3.16 µM, first compound 0.0949 µM): 61.5%
- viability, T/C (second compound 3.16 µM, first compound 0.3 µM): 55.8%
- viability, T/C (second compound 3.16 µM, first compound 0.949 µM): 56.1%
- viability, T/C (second compound 3.16 µM, first compound 3 µM): 59.7%
- viability, T/C (second compound 10 µM, first compound 0.00949 µM): 102%
- viability, T/C (second compound 10 µM, first compound 0.03 µM): 76.8%
- viability, T/C (second compound 10 µM, first compound 0.0949 µM): 57.1%
- viability, T/C (second compound 10 µM, first compound 0.3 µM): 55.4%
- viability, T/C (second compound 10 µM, first compound 0.949 µM): 64%
- viability, T/C (second compound 10 µM, first compound 3 µM): 63.1%

From PubChem BioAssay AID1963850 (Molecular Pharmacology Branch, DTP, NCI, 2024)
